According to patent US7279465B2, “Use of amphiphilic nucleoside phosphonoformic acid derivatives for the treatment of viral infectious diseases” (Eberhard-Karls-Universitaet, priority 2002, dated 2007):
pIC50: −log10 of the molar value. “And” between values parts separate entries of the source, which are not always exact repeats. Equal entries are not always repeated. Where two headings read alike, the source gives them in different places.

Assays:
[1] = tested on: multiresistant HCMV strain (GCV/PFA/CDV-resistant); experiment: Modified cell-adapted plaque reduction assay (HFF cocultures), multiresistant HCMV strain; assay type: cell-based, human cytomegalovirus (HCMV); conditions: for average plaque numbers: 1500 HCMV-infected HFF cells/microculture, multiresistant strain
Text: (§1) Cocultures of infected and uninfected human foreskin fibroblasts (HFFs) were used for this purpose.
(§2) The implementation of the assay was described for the first time in Prix, et al., “A simplified assay for screening of drug resistance of cell-associated cytomegalovirus strains,” Journal of Clinical Virology (1998) 11:29-37, and Prix, et al., “Comprehensive restriction analysis of the UL97 region allows early detection of ganciclovir-resistant human cytomegalovirus in an immunocompromised child,” Journal of Infectious Diseases (1999) 180:491-495, and is briefly described below.
(§3) HCMV primary isolates on HFF cells in tube culture were passaged on subconfluent monolayers of HFF grown in small cell culture flasks (25 cm^2), and cultured. When an approx. 20-40% cytopathic effect (CPE) had been reached, the cells were washed with phosphate-buffered saline (PBS) and the monolayer was removed by trypsinization. After the trypsin had been inactivated, the pellet was taken up in Eagle's minimal essential medium (MEM)-10% FCS (foetal calf serum) and subjected to mild filtration for the purpose of separating off cell aggregates.
(§4) In parallel, uninfected HFF cells were cultured on 175 cm^2 dishes, washed, trypsinized and, after further purification steps, taken up in MEM-10% FCS.
[…] In each case 100 μl of each of these dilution steps were pipetted in triplicate into a 96-well microtitre plate. In order to ensure that the cells adhered to the microtitre plate bottom, the cocultures were incubated for at least 4 h before the medium was carefully removed. […]
The primary antibody (anti-IE1-pp72, E13 clone, Paesel & Lorei, Germany), which is directed against the HCMV immediate early antigen (UL123) of HCMV, was then added. […] After the peroxidase/H2O2 substrate had been added, the HCMV immediate early antigen was detected, under a microscope, in the nuclei of the infected fibroblasts as a result of the in situ brown staining. […]

[2] = tested on: GCV-resistant/PFA-sensitive HCMV strain; experiment: microbe, parasite or virus in culture; assay type: cell-based, human cytomegalovirus (HCMV); conditions: for average plaque numbers/microculture: GCV-resistant, PFA/CDV-sensitive strain
Text: as §1, §2, §3, §4
In order to prepare cocultures, the infected cells were mixed with the uninfected cells in the following manner: 2.5×10^4 uninfected cells/100 μl were mixed, in two different ratios, with 500 and 1000 infected cells/100 μl. In each case 100 μl of each of these dilution steps were pipetted in triplicate into a 96-well microtitre plate. In order to ensure that the cells adhered to the microtitre plate bottom, the cocultures were incubated for at least 4 h before the medium was carefully removed.
The cultures were then incubated for 4 days so as to enable the viruses from the infected single cells to spread in the form of plaque formation by infecting the neighbouring cells.
Following the 4-day incubation, the medium was carefully poured off and the microcultures were permeabilized, and fixed, with 200 μl of ice-cold (−20° C.) methanol. After 20 min, the methanol was removed and the cells were washed twice with PBS.
The primary antibody (anti-IE1-pp72, E13 clone, Paesel & Lorei, Germany), which is directed against the HCMV immediate early antigen (UL123) of HCMV, was then added. […] After the peroxidase/H2O2 substrate had been added, the HCMV immediate early antigen was detected, under a microscope, in the nuclei of the infected fibroblasts as a result of the in situ brown staining.
6.25 μM of the structurally identical, ethyl-esterified compound N4 were also included.
In this experiment, 500 HCMV-infected HFF cells/microculture were used.
For correctly evaluating the plates, the norm was applied that a plaque had to consist of a group of cells containing at least 10 individual cells in order to be included in the count.

[3] = tested on: human prepuce fibroblasts; experiment: Cytotoxic effect in vitro towards fibroblasts; assay type: cell-based
Experimental: Since N3 was determined to have a cytotoxic effect in vitro towards human prepuce fibroblasts only at concentrations of >125 μM, adequate therapeutic breadth for in vivo use consequently also exists.

HCMV = experiment: Preliminary screening of antiviral effect in vitro; assay type: cell-based, human cytomegalovirus (HCMV); conditions: compared with unesterified compound

**Q.** “3′-azido-2′,3′-dideoxythymidylyl-(5′→2)-1-O-octadecyl-rac-glycerol-3-(hydroxycarbonyl)-phosphonate [N3]” was tested. Which average plaque numbers ([1]; N3 (6.25 μM recorded)) did it give?
**A.** 2.3

**Q.** And the average plaque numbers/microculture ([2]; 6.25 μM N3, 500 HCMV-infected HFF cells/microculture)?
**A.** 5.7 and 7.5

**Q.** And the “ID50 lower than that for GCV (fold)” value ([2]; GCV-resistant strain, 1000 infected cells/microculture)?
**A.** approx. 11 ×

**Q.** And the “antiviral activity higher than that of PFA (fold)” value ([2]; GCV-resistant/PFA-sensitive strain, 1000 infected HFF cells/microculture)?
**A.** approx. 40 ×

**Q.** What about the “concentration with cytotoxic effect in vitro” value [3] of the same compound?
**A.** > 125 µM

**Q.** Which average plaque numbers/microculture ([2]; 5 μM GCV, 500 HCMV-infected HFF cells/microculture) does the source give for `Nc1nc2c(ncn2COC(CO)CO)c(=O)[nH]1` [GCV, 9-[1,3-dihydroxy-2-propoxymethyl]guanine, reference compound] here?
**A.** 19.5

**Q.** What about the pIC50 ([2]; Human betaherpesvirus 5, Table 1, GCVres/PFAsens/CDVsens strain, Niz = 1000 infected cells/microculture, read-out: ID50 (95% CI)) of the same compound?
**A.** 4.84

**Q.** How did the average plaque numbers ([1]; PFA (300 μM recorded)) turn out when `O=C(O)P(=O)(O)O.[Na]` [PFA, sodium-phosphonoformic acid, reference compound] was run?
**A.** 20.5

**Q.** And the number of plaques ([2]; 300 μM PFA, 500 HCMV-infected HFF cells/microculture, negative control 37.9)?
**A.** 5

**Q.** And the pIC50 ([2]; Human betaherpesvirus 5, read-out: ID50 (95% CI))?
**A.** 4.19

**Q.** Which “antiviral activity against multiresistant strains” value ([1]; multiresistant strains) does the source give for “ethyl 3′-azido-2′,3′-dideoxythymidylyl-(5′→2)-1-O-octadecyl-rac-glycerol-3-(hydroxycarbonyl)-phosphonate [N4]” here?
**A.** did not exhibit any antiviral activity

**Q.** And the “antiviral effect in vitro” value (HCMV)?
**A.** markedly reduced antiviral effect
